Source: patent US7476664B2, “Bis-2-difluoro-pyrrolo[2,1-C][1,4]benzodiazepine dimers” (priority 2007, dated 2009)

Tested on: calf thymus (CT) DNA
Assay type: binding
Settings: for ΔTm (° C.) after incubation at 37° C. for 0 h / ΔTm (° C.) after incubation at 37° C. for 18 h / ΔTm (° C.) after incubation at 37° C. for 36 h: [PBD]:[DNA] molar ratio 1:5, CT-DNA 100 μM, ligand 20 μM, 10 mM sodium phosphate + 1 mM EDTA, pH 7.00; for ΔTm (° C.) after incubation at 37° C. for 0 h: 0 h incubation at 37° C.; for ΔTm (° C.) after incubation at 37° C. for 18 h: 18 h incubation at 37° C.; for ΔTm (° C.) after incubation at 37° C. for 36 h: 36 h incubation at 37° C.
Description: The DNA binding affinity of the novel C2 di-fluoro PBD dimers (VIIa-c) was investigated by thermal denaturation studies using calf thymus (CT) DNA (Jones, G. B.; Davey, C. L.; Jenkins, T. C.; Kamal, A.; Kneale, G. G.; Neidle, S.; Webster, G. D.; Thurston, D. E. Anti-Cancer Drug Des. 1990, 5, 249. McConnaughie, A. W.; Jenkins, T. C. J. Med. Chem. 1995, 38, 3488). The studies for these compounds (VIIa-c) were carried out by DNA/ligand molar ratios of 5:1. The increase in the helix melting temperature. (ΔTm) for each compound was examined after 0, 18 and 36 h incubation at 37° C.

Row | Compound | ΔTm (° C.) after incubation at 37° C. for 0 h [°C] | ΔTm (° C.) after incubation at 37° C. for 18 h [°C] | ΔTm (° C.) after incubation at 37° C. for 36 h [°C] | ΔTm (increase in the helix melting temperature) (under identical experimental conditions, DNA/ligand molar ratio 5:1, incubation time not stated) [°C]
1 | 1,1′-{[(butane-1,4-diyl)]dioxy}bis[(11aS)-2,2-difluoro-7-methoxy-1,2,3,11a-tetrahydro-5H-pyrrolo[2,1-c][1,4]benzodiazepin-5-one [VIIb] | 4.2 | 23.4 | 24.7 | 
2 | 1,1′-{[(pentane-1,5-diyl)]dioxy}bis[(11aS)-2,2-difluoro-7-methoxy-1,2,3,11a-tetrahydro-5H-pyrrolo[2,1-c][1,4]benzodiazepin-5-one [VIIc] | 18.9 | 24.5 | 28.4 | 
3 | COc1cc2c(cc1O)N=CC1CCCN1C2=O (stereo not shown) [DC-81, reference compound] | 0.3 | 0.7 | 0.7 | 0.7
4 | COc1ccc2c(c1)C(=O)N1CC(F)(F)C(OCCCOC3[C@@H]4C=Nc5ccc(OC)cc5C(=O)N4CC3(F)F)[C@@H]1C=N2 (stereo partly drawn) [VIIa, 1,1′-{[(propane-1,3-diyl)]dioxy}bis[(11aS)-2,2-difluoro-7-methoxy-1,2,3,11a-tetrahydro-5H-pyrrolo[2,1-c][1,4]benzodiazepin-5-one]] | 13.1 | 23.4 | 27.5 | 
